# Measurements from PMC11079878 (ACS Omega, 2024).
# [ ]: non-standard residue; d: D form. NMeF = CN[C@@H](Cc1ccccc1)C(=O)O; NMeA = CN[C@@H](C)C(=O)O
# Key:
# [1] = tested on: Microcystis aeruginosa strain (MVCC42); assay: Cyanobacteria growth inhibition; settings: colistin 30 μg/mL, positive control; duplicates, 7–10 days
# [2] = tested on: Lolium multiflorum (Ray grass); assay: Herbicidal activity, germination in agar methodology; type: in vivo; settings: 67 μg/mL in agar; Ryegrass, 12 days; three replicates; Figure S48
# [3] = tested on: microcystins in Microcystis (MVCC42) cultures; type: cell-based, Microcystis aeruginosa
# [4] = tested on: Lolium multiflorum (Ray grass); settings: previously reported cyclotetrapeptides; cited from earlier work
# [5] = qualitative; cited from earlier work
# HepG2 cells = settings: qualitative; cited from earlier work
molecule,measurement,setting,value
"CCc1cccc(C)c1N(C(=O)CCl)[C@@H](C)COC [Positive control, S-metolachlor]",reduction of chlorophyll a (%),[1],99%
NH-MeAla-Leu-D-Phe-β-Ala-OH [compound 29],leaf development (%),[2],not active
colistine,inhibition of microcystins concentration (%),[3],90%
cyclo(AL[dF]G) [compound 16],radicle growth inhibition (reported activity),[4],41%
cyclo(NMe-Ala-Leu-NMe-Δ^z-Phe-Gly) (head to tail) [Tentoxin],phytotoxic effect on seedlings,[5],causes seedling chlorosis
cyclo([NMeA]LFG) [compound 17],radicle growth inhibition (reported activity),[4],71%
cyclo([NMeA]L[NMeF]G) [compound 24],radicle growth inhibition (reported activity),[4],81%
versicotide D,cytotoxicity on HepG2 cells,HepG2 cells,low cytotoxicity
same,phytotoxicity,[5],high phytotoxicity
